Data reported in patent publication US8865894B2, “Oxazolidin-2-one compounds and uses thereof” (Novartis AG, priority 2012, dated 2014).
pIC50: −log10 of the molar value.

Molecular target: T1, human PI3Kα (Homo sapiens, UniProt P42336)
T1 construct: made in house
Experiment: Biochemical PI3Kalpha (KinaseGlo luminescent kinase assay)
Conditions: a different, separate measurement; read-out: PI3Ka IC50, different, separate measurement (footnote)
Procedure: Test compounds were dissolved in DMSO (10 mM) and transferred into 1.4 mL flat bottom or V-shaped Matrix tubes carrying a unique 2D matrix chip by individual Novartis compound hubs. The numbers of these chips were distinctively linked to Novartis Pharma Numbers. The stock solutions were stored at −20° C. if not used immediately. For the test procedure the vials were defrosted and identified by a scanner whereby a working sheet was generated that guided the subsequent working steps.
Compounds were either manually diluted in DMSO for individual experiments (96 wells enabling 10 cpds at 8 (single points) concentrations) as described in or prepared as described below if tested for profiling in 384-wells. This format enabled the assay of maximally 40 individual test compounds at 8 concentrations (single points) including 4 reference compounds. The dilution protocol included the production of “pre-dilution plates”, “master plates” and “assay plates”.
96 polypropylene well plates were used as pre-dilution plates. A total of 4 pre-dilution plates were prepared including 10 test compounds each on the plate positions A1-A10, one standard compound at A11 and one DMSO control at A12. Programs have been written to run these pipetting steps on the HamiltonSTAR robots.
Identical “assay plates” were then prepared by pipetting 50 nL each of compound dilutions of the “master plates” into 384-well “assay plates”. The compounds were mixed with 4.5 μL of assays components plus 4.5 μL enzyme corresponding to a 1:181 dilution enabling the final concentration of 10, 3.0, 1.0, 0.3, 0.1, 0.03, 0.01 and 0.003 μM, respectively. The preparation of the “master plates” was handled by the Matrix PlateMate Plus robot and replication of “assay plates” by the HummingBird robot.
Catalytically active human PI3Kα, PI3Kβ, PI3Kδ, and mTOR were cloned, expressed and purified as described (Maira S M, Stauffer F, Brueggen J, Furet P, Schnell C, Fritsch C, Brachmann S, Chène P, de Pover A, Schoemaker K, Fabbro D, Gabriel D, Simonen M, Murphy L, Finan P, Sellers W, García-Echeverría C (2008), Mol Cancer Ther. 7:1851-63 and Maira S M, Pecchi S, Brueggen J, Huh K, Schnell C, Fritsch C, Nagel T, Wiesmann M, Brachmann S, Dorsch M, Chène P, Schoemaker K, De Pover A, Menezes D, Fabbro D, Sellers W, García-Echeverría C, Voliva C F (2011), Mol. Cancer Ther. accepted).
The luminescence-based ATP detection reagent KinaseGlo was obtained from Promega, (Cat. No. V6714, Lot No. 236161) through Catalys, Wallisellen, Switzerland. (L-alpha-phosphatidylinositol (PI), Liver, Bovine) were obtained from Avanti Polar Lipid (Cat. No. 840042C, Lot#LPI-274), Phosphatidylinositol-4,5-bisphosphate (PIP(4,5)2 (Avanti, Cat. No. 840046×) or L-α-phosphatidylinositol (PI) was obtained from Avanti Polar Lipid (Cat. No. 840042C, Lot#LPI-274). L-α-Phosphatidylserine (PS) was from Avanti Polar Lipid (Cat. No. 840032C), n-OctylGlucoside Avanti Polar Lipid (Cat. No. 10634425001). Luminescence is a well established readout to determine ATP concentrations and can thus be used to follow the activity of many kinases regardless of their substrate. The Kinase Glo Luminescent Kinase Assay (Promega, Madison/Wis., USA) is a homogeneous HTS method of measuring kinase activity by quantifying the amount of ATP remaining in solution following a kinase reaction.
50 nL of compound dilutions were dispensed onto black 384-well low volume Non Binding Styrene (NBS) plates (Costar Cat. No. NBS#3676) as described in section 8.2. L-α-phosphatidylinositol (PI), provided as 10 mg/ml solution in methanol, was transferred into a glass tube and dried under nitrogen beam. It was then resuspended in 3% OctylGlucoside by vortexing and stored at 4° C. 5 μL of a mix of PI/OG with the PI3Ka and Pi3Kb subtypes were added. Kinase reactions were started by addition of 5 μl of ATP-mix containing in a final volume 10 μL 10 mM TRIS-HCl pH 7.5, 3 mM MgCl2, 50 mM NaCl, 0.05% CHAPS, 1 mM DTT and 1 μM ATP, and occurred at room temperature.

T1 sequence (P42336 with tags, fused parts or gaps limits assumed): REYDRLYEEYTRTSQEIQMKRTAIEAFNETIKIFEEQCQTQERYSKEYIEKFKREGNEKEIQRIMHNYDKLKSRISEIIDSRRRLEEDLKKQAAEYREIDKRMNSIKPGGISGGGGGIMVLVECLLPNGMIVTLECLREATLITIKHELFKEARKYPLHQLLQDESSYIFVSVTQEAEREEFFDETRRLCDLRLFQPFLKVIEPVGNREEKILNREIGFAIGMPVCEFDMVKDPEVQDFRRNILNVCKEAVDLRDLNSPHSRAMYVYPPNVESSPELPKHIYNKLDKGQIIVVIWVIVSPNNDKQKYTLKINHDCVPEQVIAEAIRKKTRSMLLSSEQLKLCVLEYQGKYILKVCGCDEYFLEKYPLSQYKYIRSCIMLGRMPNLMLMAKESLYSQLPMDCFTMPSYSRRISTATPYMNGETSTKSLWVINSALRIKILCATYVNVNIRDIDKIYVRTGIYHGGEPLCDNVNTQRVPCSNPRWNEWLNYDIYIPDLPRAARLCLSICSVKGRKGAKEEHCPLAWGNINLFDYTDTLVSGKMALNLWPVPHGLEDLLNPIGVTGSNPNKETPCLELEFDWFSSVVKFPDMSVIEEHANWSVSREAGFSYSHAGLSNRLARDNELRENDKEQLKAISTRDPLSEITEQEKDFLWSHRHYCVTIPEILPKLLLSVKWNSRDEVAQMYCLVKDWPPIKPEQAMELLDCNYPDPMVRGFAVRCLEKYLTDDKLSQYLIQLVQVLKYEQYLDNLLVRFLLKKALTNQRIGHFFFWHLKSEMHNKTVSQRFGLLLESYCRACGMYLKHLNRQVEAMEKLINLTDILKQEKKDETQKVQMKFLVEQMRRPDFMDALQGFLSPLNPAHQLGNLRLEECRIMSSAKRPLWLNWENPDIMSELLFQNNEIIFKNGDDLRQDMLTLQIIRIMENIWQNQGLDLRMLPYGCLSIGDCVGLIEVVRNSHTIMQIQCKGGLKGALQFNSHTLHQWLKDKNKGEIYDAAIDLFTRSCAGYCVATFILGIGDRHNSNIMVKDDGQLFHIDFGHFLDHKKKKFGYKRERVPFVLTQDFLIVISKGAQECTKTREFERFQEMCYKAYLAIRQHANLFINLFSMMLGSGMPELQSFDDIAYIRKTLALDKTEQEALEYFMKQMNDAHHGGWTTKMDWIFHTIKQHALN

Row | pIC50 | Structure (SMILES)
1 | > 8.52 | C[C@H]1C(CC(C)(C)O)OC(=O)N1c1cc(-c2cnc(N)nc2C(F)(F)F)nc(N2CCOCC2)n1 (mixture of isomers) [Example 26, (4S,5R)- and (4S,5S)-3-(2′-amino-2-morpholino-4′-(trifluoromethyl)-[4,5′-bipyrimidin]-6-yl)-5-(2-hydroxy-2-methylpropyl)-4-methyloxazolidin-2-one]
2 | > 8.52 | C[C@H](O)CC1OC(=O)N(c2cc(-c3cnc(N)nc3C(F)(F)F)nc(N3CCOCC3)n2)[C@H]1C (single isomer, unassigned) [Example 25]

Same assay, conditions: biochemical, 1 μM ATP, mean of n measurements

Row | PI3Ka/ IC50 [umol I-1] | Structure (SMILES)
3 | 0.017 | [2H]C1([2H])OC([2H])([2H])C([2H])([2H])N(c2nc(-c3cnc(N)nc3C(F)(F)F)cc(N3C(=O)OC[C@@H]3C)n2)C1([2H])[2H] [Example 17, (S)-3-(2′-amino-2-D8-morpholino-4′-(trifluoromethyl)-[4,5′-bipyrimidin]-6-yl)-4-methyloxazolidin-2-one]
4 | 0.009 | C[C@H]1OC(=O)N(c2cc(-c3cnc(N)nc3C(F)(F)F)nc(N3CCOCC3)n2)[C@H]1CO [Example 18, (4S,5R)-3-(2′-Amino-2-morpholin-4-yl-4′-trifluoromethyl-[4,5′]bipyrimidinyl-6-yl)-4-hydroxymethyl-5-methyl-oxazolidin-2-one]
5 | 0.006 | C[C@H]1[C@@H](CO)OC(=O)N1c1cc(-c2cnc(N)nc2C(F)(F)F)nc(N2CCOCC2)n1 [Example 19, (4S,5S)-3-(2′-Amino-2-morpholin-4-yl-4′-trifluoromethyl-[4,5′]bipyrimidinyl-6-yl)-5-hydroxymethyl-4-methyl-oxazolidin-2-one]
6 | 0.024 | Nc1ncc(-c2cc(N3C[C@H](CO)OC3=O)nc(N3CCOCC3)n2)c(C(F)(F)F)n1 [Example 20, (R)-3-(2′-Amino-2-morpholin-4-yl-4′-trifluoromethyl-[4,5′]bipyrimidinyl-6-yl)-5-hydroxymethyl-oxazolidin-2-one]

More lines, now with the values behind:

Row | Structure (SMILES) | PI3Ka/ IC50 [umol I-1]
7 | CC1(CO)COC(=O)N1c1cc(-c2cnc(N)nc2C(F)(F)F)nc(N2CCOCC2)n1 (racemic) [Example 3, 3-(2′-amino-2-morpholino-4′-(trifluoromethyl)-4,5′-bipyrimidin-6-yl)-4-(hydroxymethyl)-4-methyloxazolidin-2-one] | 0.021
8 | C[C@H]1COC(=O)N1c1cc(-c2cnc(N)nc2C(F)(F)F)nc(N2CCOCC2)n1 [Example 1, (S)-3-(2′-Amino-2-morpholin-4-yl-4′-trifluoromethyl-[4,5′]bipyrimidinyl-6-yl)-4-methyl-oxazolidin-2-one] | 0.008
9 | CC1(C)OC(=O)N(c2cc(-c3cnc(N)nc3C(F)(F)F)nc(N3CCOCC3)n2)[C@H]1CO [Example 2, (S)-3-(2′-Amino-2-morpholin-4-yl-4′-trifluoromethyl-[4,5′]bipyrimidinyl-6-yl)-4-hydroxymethyl-5,5-dimethyl-oxazolidin-2-one] | 0.023
10 | Nc1ncc(-c2cc(N3C(=O)O[C@H]4CCCC[C@@H]43)nc(N3CCOCC3)n2)c(C(F)(F)F)n1 [Example 4, (3aS,7aS)-3-(2′-Amino-2-morpholin-4-yl-4′-trifluoromethyl-[4,5′]bipyrimidinyl-6-yl)-hexahydro-benzooxazol-2-one] | 0.014
11 | COC[C@H]1COC(=O)N1c1cc(-c2cnc(N)nc2C(F)(F)F)nc(N2CCOCC2)n1 [Example 5, (S)-3-(2′-Amino-2-morpholin-4-yl-4′-trifluoromethyl-[4,5′]bipyrimidinyl-6-yl)-4-methoxymethyl-oxazolidin-2-one] | 0.011
12 | C[C@@H]1OC(=O)N(c2cc(-c3cnc(N)nc3C(F)(F)F)nc(N3CCOCC3)n2)[C@H]1CO [Example 6] | 0.013
13 | [2H]C1([2H])OC([2H])([2H])C([2H])([2H])N(c2nc(-c3cnc(N)nc3C(F)(F)F)cc(N3C(=O)O[C@H](C)[C@@H]3CO)n2)C1([2H])[2H] [Example 8] | 0.013
14 | Nc1ncc(-c2cc(N3C(=O)OC[C@@H]3CCO)nc(N3CCOCC3)n2)c(C(F)(F)F)n1 [Example 9, (S)-3-(2′-Amino-2-morpholin-4-yl-4′-trifluoromethyl-[4,5′]bipyrimidinyl-6-yl)-4-(2-hydroxy-ethyl)-oxazolidin-2-one] | 0.384
15 | Nc1ncc(-c2cc(N3CCOC3=O)nc(N3CCOCC3)n2)c(C(F)(F)F)n1 [Example 11, 3-(2′-Amino-2-morpholin-4-yl-4′-trifluoromethyl-[4,5′]bipyrimidinyl-6-yl)-oxazolidin-2-one, reference compound] | 0.038
16 | C[C@H]1OC(=O)N(c2cc(-c3cnc(N)nc3C(F)(F)F)nc(N3CCOCC3)n2)[C@H]1COC=O [Example 12, Formic acid (4S,5R)-3-(2′-amino-2-morpholin-4-yl-4′-trifluoromethyl-[4,5′]bipyrimidinyl-6-yl)-5-methyl-2-oxo-oxazolidin-4-ylmethyl ester] | 0.030
17 | C[C@H]1COCCN1c1nc(-c2cnc(N)nc2C(F)(F)F)cc(N2C(=O)OC[C@@H]2C)n1 [Example 13, (S)-3-[2′-Amino-2-((S)-3-methyl-morpholin-4-yl)-4′-trifluoromethyl-[4,5′]bipyrimidinyl-6-yl]-4-methyl-oxazolidin-2-one] | 0.203
18 | Nc1ncc(-c2cc(N3C[C@@H](CO)OC3=O)nc(N3CCOCC3)n2)c(C(F)(F)F)n1 [Example 14, (S)-3-(2′-Amino-2-morpholin-4-yl-4′-trifluoromethyl-[4,5′]bipyrimidinyl-6-yl)-5-hydroxymethyl-oxazolidin-2-one] | 0.057
19 | C[C@H]1[C@H](CO)OC(=O)N1c1cc(-c2cnc(N)nc2C(F)(F)F)nc(N2CCOCC2)n1 [Example 15, (4S,5R)-3-(2′-Amino-2-morpholin-4-yl-4′-trifluoromethyl-[4,5′]bipyrimidinyl-6-yl)-5-hydroxymethyl-4-methyl-oxazolidin-2-one] | 0.026
20 | C[C@H]1CN(c2cc(-c3cnc(N)nc3C(F)(F)F)nc(N3CCOCC3)n2)C(=O)O1 [Example 16, (S)-3-(2′-Amino-2-morpholin-4-yl-4′-trifluoromethyl-[4,5′]bipyrimidinyl-6-yl)-5-methyl-oxazolidin-2-one] | 0.030

Same assay, conditions: biochemical, 1 μM ATP, mean of n measurements; read-out: PI3Ka/ IC50

Row | pIC50 | Structure (SMILES)
21 | 8.30 | C[C@H]1C(CC(C)(C)O)OC(=O)N1c1cc(-c2cnc(N)nc2C(F)(F)F)nc(N2CCOCC2)n1 (mixture of isomers) [Example 26, (4S,5R)- and (4S,5S)-3-(2′-amino-2-morpholino-4′-(trifluoromethyl)-[4,5′-bipyrimidin]-6-yl)-5-(2-hydroxy-2-methylpropyl)-4-methyloxazolidin-2-one]
22 | 8.22 | Nc1ncc(-c2cc(N3C(=O)O[C@@H]4[C@@H](O)CC[C@@H]43)nc(N3CCOCC3)n2)c(C(F)(F)F)n1 (racemic) [Example 22, (3aR*,6R*,6aR*)-3-(2′-Amino-2-morpholino-4′-(trifluoromethyl)-[4,5′-bipyrimidin]-6-yl)-6-hydroxyhexahydro-2H-cyclopenta[d]oxazol-2-one]
23 | 8.15 | Nc1ncc(-c2cc(N3C(=O)OC4C(O)CCC43)nc(N3CCOCC3)n2)c(C(F)(F)F)n1 (single isomer, unassigned) [Example 22A]
24 | 7.59 | Nc1ncc(-c2cc(N3C(=O)OC4C(O)CCC43)nc(N3CCOCC3)n2)c(C(F)(F)F)n1 (single isomer, unassigned) [Example 22B]
25 | 8.30 | C[C@@H](O)C[C@H]1OC(=O)N(c2cc(-c3cnc(N)nc3C(F)(F)F)nc(N3CCOCC3)n2)[C@H]1C (single isomer, unassigned) [Example 24]
26 | 8.30 | C[C@H](O)CC1OC(=O)N(c2cc(-c3cnc(N)nc3C(F)(F)F)nc(N3CCOCC3)n2)[C@H]1C (single isomer, unassigned) [Example 25]
